Test results as given in patent publication US8129371B2, “Thienopyrimidine and pyrazolopyrimidine compounds and their use as mTOR kinase and PI3 kinase inhibitors” (Wyeth LLC, priority 2007, dated 2012).
pIC50: −log10 of the molar value.

Tests used:
Human mTOR (FLAG-TOR) = target: T1, Human mTOR (FLAG-TOR) (Homo sapiens, UniProt P42345); experiment: Human mTOR kinase assay with purified enzyme, DELFIA format; format: biochemical; conditions: purified human mTOR enzyme, DELFIA format
T1 construct: FLAG
Summary of the method: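 Purified FLAG-mTOR in HEPES pH 7.4 buffer with 10 mM MnCl2 was preincubated with inhibitor and reacted 2 h at room temperature with His6-S6K substrate, then stopped with EDTA/EGTA. Phospho-T389 S6K detected by DELFIA with Eu-labelled antibody (40 ng/mL) after plate capture; inhibition computed from signal.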

PI3K [1] = target: T2, PI3K (Homo sapiens, UniProt P42336); experiment: Fluorescence polarization assay for PI3K; format: biochemical; conditions: PI3 Kinase α isoform, fluorescence polarization; read-out: PI3 Kinase α IC50
T2 construct: PI3 Kinase α IC50; other: PI3 Kinase α; other: PI3 Kinase α isoform, fluorescence polarization
T2 sequence (P42336 whole entry, canonical isoform): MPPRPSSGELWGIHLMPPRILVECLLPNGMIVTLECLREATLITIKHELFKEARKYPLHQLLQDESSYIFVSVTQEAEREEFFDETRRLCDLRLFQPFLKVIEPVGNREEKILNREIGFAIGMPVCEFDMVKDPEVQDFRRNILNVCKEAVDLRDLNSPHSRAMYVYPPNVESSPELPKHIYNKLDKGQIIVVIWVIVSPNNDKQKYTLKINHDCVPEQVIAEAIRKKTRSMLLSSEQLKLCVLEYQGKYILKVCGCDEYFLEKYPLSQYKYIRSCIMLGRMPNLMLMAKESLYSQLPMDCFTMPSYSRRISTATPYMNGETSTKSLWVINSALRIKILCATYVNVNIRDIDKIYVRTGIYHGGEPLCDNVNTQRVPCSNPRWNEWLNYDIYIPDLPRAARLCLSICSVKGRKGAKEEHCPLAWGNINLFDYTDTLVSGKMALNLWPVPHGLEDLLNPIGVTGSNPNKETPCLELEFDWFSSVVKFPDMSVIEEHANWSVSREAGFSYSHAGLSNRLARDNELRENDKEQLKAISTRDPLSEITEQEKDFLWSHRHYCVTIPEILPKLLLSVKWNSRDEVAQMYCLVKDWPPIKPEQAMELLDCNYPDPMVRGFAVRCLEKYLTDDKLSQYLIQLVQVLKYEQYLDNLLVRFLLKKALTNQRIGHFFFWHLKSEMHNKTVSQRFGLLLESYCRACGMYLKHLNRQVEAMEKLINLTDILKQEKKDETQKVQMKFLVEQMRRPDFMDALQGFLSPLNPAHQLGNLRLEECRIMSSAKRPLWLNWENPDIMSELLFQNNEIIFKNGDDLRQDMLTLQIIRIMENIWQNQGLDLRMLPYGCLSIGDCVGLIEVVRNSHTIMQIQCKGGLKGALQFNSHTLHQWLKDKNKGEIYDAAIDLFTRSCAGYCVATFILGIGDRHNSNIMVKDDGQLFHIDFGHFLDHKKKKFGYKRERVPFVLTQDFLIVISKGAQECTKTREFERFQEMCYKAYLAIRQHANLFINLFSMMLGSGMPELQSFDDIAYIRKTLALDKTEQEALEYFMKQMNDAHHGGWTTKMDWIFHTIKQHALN
Summary of the method: (§1)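 PI3K was preincubated with compound (final DMSO 1%), and the reaction was started with PIP2/ATP substrate and run 30–60 min. It was stopped with a detector mix giving 10 nM red probe and 70 nM GST-GRP.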

PI3K [2] = target: T3, PI3K (Homo sapiens, UniProt P48736); experiment: Fluorescence polarization assay for PI3K; format: biochemical; conditions: PI3 Kinase γ isoform, fluorescence polarization; read-out: PI3 Kinase γ IC50
T3 construct: PI3 Kinase γ IC50; other: PI3 Kinase γ; other: PI3 Kinase γ isoform, fluorescence polarization
T3 sequence (P48736 whole entry, canonical isoform): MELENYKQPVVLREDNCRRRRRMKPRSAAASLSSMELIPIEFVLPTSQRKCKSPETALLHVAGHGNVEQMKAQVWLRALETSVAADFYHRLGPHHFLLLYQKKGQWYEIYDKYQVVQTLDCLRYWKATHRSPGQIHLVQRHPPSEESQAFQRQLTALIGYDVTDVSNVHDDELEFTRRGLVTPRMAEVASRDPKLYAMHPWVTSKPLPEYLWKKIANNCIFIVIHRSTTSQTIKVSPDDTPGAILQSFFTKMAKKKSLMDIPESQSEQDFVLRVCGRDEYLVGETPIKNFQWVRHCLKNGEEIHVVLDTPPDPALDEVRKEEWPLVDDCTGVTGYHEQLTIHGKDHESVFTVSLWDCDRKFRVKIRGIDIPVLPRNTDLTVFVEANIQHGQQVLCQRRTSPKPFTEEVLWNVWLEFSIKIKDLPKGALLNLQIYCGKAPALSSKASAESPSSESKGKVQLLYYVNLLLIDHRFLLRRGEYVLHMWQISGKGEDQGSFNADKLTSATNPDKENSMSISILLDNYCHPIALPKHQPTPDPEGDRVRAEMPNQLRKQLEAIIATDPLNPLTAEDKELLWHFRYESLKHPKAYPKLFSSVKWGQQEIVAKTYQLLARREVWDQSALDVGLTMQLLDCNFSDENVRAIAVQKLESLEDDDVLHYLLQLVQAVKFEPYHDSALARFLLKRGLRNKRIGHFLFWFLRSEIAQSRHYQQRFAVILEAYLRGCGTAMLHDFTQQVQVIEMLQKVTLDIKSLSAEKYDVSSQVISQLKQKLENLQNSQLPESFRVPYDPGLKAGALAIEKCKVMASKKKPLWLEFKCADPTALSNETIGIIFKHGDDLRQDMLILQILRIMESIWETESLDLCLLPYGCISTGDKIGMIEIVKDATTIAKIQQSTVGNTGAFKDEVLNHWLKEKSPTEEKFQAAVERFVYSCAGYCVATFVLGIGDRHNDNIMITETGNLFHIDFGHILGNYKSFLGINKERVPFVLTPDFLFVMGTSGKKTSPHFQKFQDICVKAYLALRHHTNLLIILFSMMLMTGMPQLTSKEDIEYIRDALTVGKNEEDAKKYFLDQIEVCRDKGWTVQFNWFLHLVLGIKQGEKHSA
Summary of the method: as §1

prostate line LNCap = experiment: In vitro cell culture growth assay (MTS), LNCap; format: cell-based; conditions: Homo sapiens, LNCaP, 72 h, LNCap cells, three days after drug treatment
Summary of the method: (§2)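 The readout was MTS dye metabolism at 490 nm, taken after 3-day drug exposure that began the day after seeding. Growth was expressed as percent of vehicle-treated wells in the same plate.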

breast line MDA468 = experiment: In vitro cell culture growth assay (MTS), MDA468; format: cell-based; conditions: Homo sapiens, 72 h, MDA468 cells, three days after drug treatment
Summary of the method: as §2

SMILES	pIC50 (Human mTOR (FLAG-TOR))	pIC50 (PI3K [1])	pIC50 (PI3K [2])	pIC50 (prostate line LNCap)	pIC50 (breast line MDA468)
O=C(Nc1ccc(-c2nc(N3C[C@@H]4C[C@H]3CO4)c3cnn(CC(F)(F)F)c3n2)cc1)Nc1ccc(N2CCOCC2)nc1 [Example 299, 1-(6-morpholin-4-ylpyridin-3-yl)-3-(4-{4-[(1S,4S)-2-oxa-5-azabicyclo[2.2.1]hept-5-yl]-1-(2,2,2-trifluoroethyl)-1H-pyrazolo[3,4-d]pyrimidin-6-yl}phenyl)urea]	8.55	4.99	< 5.00	8.00	7.38
CN(C)CCOc1ccc(NC(=O)Nc2ccc(-c3nc(N4C[C@@H]5C[C@H]4CO5)c4cnn(CC(F)(F)F)c4n3)cc2)cc1 [Example 300, 1-{4-[2-(dimethylamino)ethoxy]phenyl}-3-(4-{4-[(1S,4S)-2-oxa-5-azabicyclo[2.2.1]hept-5-yl]-1-(2,2,2-trifluoroethyl)-1H-pyrazolo[3,4-d]pyrimidin-6-yl}phenyl)urea]	8.26	6.24	5.28	9.00	7.92
COC1CCC(n2ncc3c(N4CC5CCC(C4)O5)nc(-c4ccc(NC(=O)Nc5ccncc5)cc4)nc32)CC1 (centres unmarked) [Example 303, 1-{4-[1-(4-methoxycyclohexyl)-4-(8-oxa-3-azabicyclo[3.2.1]oct-3-yl)-1H-pyrazolo[3,4-d]pyrimidin-6-yl]phenyl}-3-pyridin-4-ylurea]	9.84	6.79	6.07	> 9.00	9.00
COC1CCC(n2ncc3c(N4CC5CCC(C4)O5)nc(-c4ccc(NC(=O)Nc5ccc(N6CCNCC6)cc5)cc4)nc32)CC1 (centres unmarked) [Example 305, 1-{4-[1-(4-methoxycyclohexyl)-4-(8-oxa-3-azabicyclo[3.2.1]oct-3-yl)-1H-pyrazolo[3,4-d]pyrimidin-6-yl]phenyl}-3-(4-piperazin-1-ylphenyl)urea]	9.60	6.74	5.82	> 9.00	9.00
COC1CCC(n2ncc3c(N4CC5CCC(C4)O5)nc(-c4ccc(NC(=O)Nc5ccc(C(N)=O)cc5)cc4)nc32)CC1 (centres unmarked) [Example 306, 4-[({4-[1-(4-methoxycyclohexyl)-4-(8-oxa-3-azabicyclo[3.2.1]oct-3-yl)-1H-pyrazolo[3,4-d]pyrimidin-6-yl]phenyl}carbamoyl)amino]benzamide]	10.10	7.06	5.90	> 9.00	8.10
COC1CCC(n2ncc3c(N4CC5CCC(C4)O5)nc(-c4ccc(NC(=O)Nc5ccc(C(=O)NN6CCCC6)cc5)cc4)nc32)CC1 (centres unmarked) [Example 307, 4-[({4-[1-(4-methoxycyclohexyl)-4-(8-oxa-3-azabicyclo[3.2.1]oct-3-yl)-1H-pyrazolo[3,4-d]pyrimidin-6-yl]phenyl}carbamoyl)amino]-N-pyrrolidin-1-ylbenzamide]	9.84	6.39	5.30	> 9.00	8.70
COC1CCC(n2ncc3c(N4CC5CCC(C4)O5)nc(-c4ccc(NC(=O)Nc5ccc(CO)cc5)cc4)nc32)CC1 (centres unmarked) [Example 308, 1-[4-(hydroxymethyl)phenyl]-3-{4-[1-(4-methoxycyclohexyl)-4-(8-oxa-3-azabicyclo[3.2.1]oct-3-yl)-1H-pyrazolo[3,4-d]pyrimidin-6-yl]phenyl}urea]	10.10	7.10	5.57	> 9.00	> 9.00
COC1CCC(n2ncc3c(N4CC5CCC(C4)O5)nc(-c4ccc(NC(=O)Nc5ccc(N6CCN(C)CC6)nc5)cc4)nc32)CC1 (centres unmarked) [Example 309, 1-{4-[1-(4-methoxycyclohexyl)-4-(8-oxa-3-azabicyclo[3.2.1]oct-3-yl)-1H-pyrazolo[3,4-d]pyrimidin-6-yl]phenyl}-3-[6-(4-methylpiperazin-1-yl)pyridin-3-yl]urea]	9.41	6.47	5.57	> 9.00	8.70
COC1CCC(n2ncc3c(N4CC5CCC(C4)O5)nc(-c4ccc(NC(=O)Nc5ccc(OCCN(C)C)cc5)cc4)nc32)CC1 (centres unmarked) [Example 310, 1-{4-[2-(dimethylamino)ethoxy]phenyl}-3-{4-[1-(4-methoxycyclohexyl)-4-(8-oxa-3-azabicyclo[3.2.1]oct-3-yl)-1H-pyrazolo[3,4-d]pyrimidin-6-yl]phenyl}urea]	9.31	6.66	5.61	> 9.00	9.00
COC1CCC(n2ncc3c(N4CC5CCC(C4)O5)nc(-c4ccc(NC(=O)OCCO)cc4)nc32)CC1 (centres unmarked) [Example 311, 2-hydroxyethyl {4-[1-(4-methoxycyclohexyl)-4-(8-oxa-3-azabicyclo[3.2.1]oct-3-yl)-1H-pyrazolo[3,4-d]pyrimidin-6-yl]phenyl}carbamate]	9.07	5.42	< 5.00	8.70	6.92
O=C(Nc1ccc(-c2nc(N3CC4CCC(C3)O4)c3cnn(CC(F)(F)F)c3n2)cc1)Nc1ccc(N2CCNCC2)cc1 [Example 317, 1-{4-[4-(8-oxa-3-azabicyclo[3.2.1]oct-3-yl)-1-(2,2,2-trifluoroethyl)-1H-pyrazolo[3,4-d]pyrimidin-6-yl]phenyl}-3-(4-piperazin-1-ylphenyl)urea]	9.59	7.11	< 5.00	> 9.00	9.00
O=C(Nc1ccc(-c2nc(N3C4CCC3COC4)c3cnn(CC(F)(F)F)c3n2)cc1)Nc1ccc(N2CCNCC2)cc1 [Example 318, 1-{4-[4-(3-oxa-8-azabicyclo[3.2.1]oct-8-yl)-1-(2,2,2-trifluoroethyl)-1H-pyrazolo[3,4-d]pyrimidin-6-yl]phenyl}-3-(4-piperazin-1-ylphenyl)urea]	9.72	6.76	5.64	> 9.00	9.00
CNC(=O)Nc1ccc(-c2nc(N3CC4CCC(C3)O4)c3cnn(C(COC)COC)c3n2)cc1 [Example 319, 1-(4-{1-[2-methoxy-1-(methoxymethyl)ethyl]-4-(8-oxa-3-azabicyclo[3.2.1]oct-3-yl)-1H-pyrazolo[3,4-d]pyrimidin-6-yl}phenyl)-3-methylurea]	7.87	6.20	< 5.00	6.62	6.05
CCNC(=O)Nc1ccc(-c2nc(N3CC4CCC(C3)O4)c3cnn(C(COC)COC)c3n2)cc1 [Example 320, 1-ethyl-3-(4-{1-[2-methoxy-1-(methoxymethyl)ethyl]-4-(8-oxa-3-azabicyclo[3.2.1]oct-3-yl)-1H-pyrazolo[3,4-d]pyrimidin-6-yl}phenyl)urea]	8.04	5.71	< 5.00	6.80	6.23
COCC(COC)n1ncc2c(N3CC4CCC(C3)O4)nc(-c3ccc(NC(=O)NC4CC4)cc3)nc21 [Example 321, 1-cyclopropyl-3-(4-{1-[2-methoxy-1-(methoxymethyl)ethyl]-4-(8-oxa-3-azabicyclo[3.2.1]oct-3-yl)-1H-pyrazolo[3,4-d]pyrimidin-6-yl}phenyl)urea]	7.98	5.42	< 5.00	6.77	5.98
COCC(COC)n1ncc2c(N3CC4CCC(C3)O4)nc(-c3ccc(NC(=O)NCCO)cc3)nc21 [Example 322, 1-(2-hydroxyethyl)-3-(4-{1-[2-methoxy-1-(methoxymethyl)ethyl]-4-(8-oxa-3-azabicyclo[3.2.1]oct-3-yl)-1H-pyrazolo[3,4-d]pyrimidin-6-yl}phenyl)urea]	8.19	5.90	< 5.00	6.00	5.55
COCC(COC)n1ncc2c(N3CC4CCC(C3)O4)nc(-c3ccc(NC(=O)OCCO)cc3)nc21 [Example 323, 2-hydroxyethyl (4-{1-[2-methoxy-1-(methoxymethyl)ethyl]-4-(8-oxa-3-azabicyclo[3.2.1]oct-3-yl)-1H-pyrazolo[3,4-d]pyrimidin-6-yl}phenyl)carbamate]	7.78	5.18	< 5.00	6.33	5.70
COCC(COC)n1ncc2c(N3CC4CCC(C3)O4)nc(-c3ccc(NC(=O)Nc4ccccc4)cc3)nc21 [Example 324, 1-(4-{1-[2-methoxy-1-(methoxymethyl)ethyl]-4-(8-oxa-3-azabicyclo[3.2.1]oct-3-yl)-1H-pyrazolo[3,4-d]pyrimidin-6-yl}phenyl)-3-phenylurea]	8.47	6.42	5.28	8.10	7.24
COCC(COC)n1ncc2c(N3CC4CCC(C3)O4)nc(-c3ccc(NC(=O)Nc4ccncc4)cc3)nc21 [Example 325, 1-(4-{1-[2-methoxy-1-(methoxymethyl)ethyl]-4-(8-oxa-3-azabicyclo[3.2.1]oct-3-yl)-1H-pyrazolo[3,4-d]pyrimidin-6-yl}phenyl)-3-pyridin-4-ylurea]	8.80	6.22	5.30	8.70	7.72
